For one experiment, the target named is HLA-A*02:01 (Homo sapiens, UniProt P04439, D140Y/D185E/D98H/E176V/E277Q/G131W/G231S/I119V/I121R/I166T/I218V/L300P/L318F/N151K/N90K/P208A/P217A/Q86G/Q94H/R138H/R169H/T345S). Kind of experiment: HLA-A*02:01 binding assay (surface stabilization on TAP-deficient T2 cells). The settings on record: different peptide concentrations in duplicate, serum-free RPMI, overnight at room temperature, PE anti-HLA-A2 (BB7.2) flow cytometry, referred to 25 μM HB-ENV335-343 peptide. The procedure: TAP-deficient T2 cells were used for the HLA-A*02:01 binding assays and the K562-A2 cells for the HLA-A*02:01 restriction assay. The cells were cultured in complete RPMI medium supplemented with 10% of inactivated Fetal Calf Serum (iFCS), 2 mM glutamine, and 100 U/ml penicillin. K562-A2 cells, expressing the HLA-A*02:01 molecule were cultured in the presence of […] of G-418, as previously described. The T2 and K562-A2 cells were kindly provided by Dr. Pedro Romero (University of Lausanne) and by Dr Peter Ponsaerts (University of Antwerp, with the permission of Dr. Cedrik Britten from Johanes Gutenberg-University Mainz), respectively.
HLA-A*02:01 surface stabilization test was carried out as described in [42]. Briefly, TAP-deficient T2 cells were loaded with different concentrations of each peptide, in duplicate in serum-free RPMI medium, and incubated overnight at room temperature. Afterwards, the cells were stained with a PE-labeled HLA-A2-specific antibody (BB7.2 clone, BD biosciences) and analyzed by flow cytometry. The high-affinity HLA-A*02:01-binding peptide […] ([…]) was included as internal standard. Affinity data were calculated as the percentage of maximum complex stabilization, as described in [44]. The following equation was used: % of maximal stabilization = 100 x [(mean fluorescence with peptide)–(background mean fluorescence)]/[(mean fluorescence with 25 μM HBENV335-343 peptide)–(background mean fluorescence)]. Background value was obtained with cells incubated in the same conditions without peptide.
The percentage of maximal binding stabilization of these eight TcCA-2 peptides was evaluated using TAP-deficient T2 cells and different concentrations of each peptide. […] The maximal binding affinity is shown for each peptide in Table 1.

Experiment [1] deals with PBMC from HLA-A*02:01 Chagas disease patients and healthy donors. Description: Granzyme B ELISPOT in PBMC. In kind it is cell-based, human. As to conditions: 30 h, non-peptide control spots subtracted. The procedure:
For the screening of the recognition of TcCA-2 epitopes by Chagas disease patients, 10 HLA-A*02:01 adult patients in the asymptomatic phase of the disease (IND) were enrolled. For cytotoxicity, functional activity determinations and phenotypic characterization another group of 19 HLA-A*02:01 adults Chagas disease patients and 9 healthy donors were analyzed. These patients were at the chronic stage of the disease and were considered to be at the asymptomatic phase (IND, n = 8) if there was no evidence of having cardiac or gastrointestinal disorders. Chronic Chagas cardiomyopathy patients (CCC, n = 11) were stratified into G1 to G3 stages following Kuschnir classification according to clinical criteria and radiological, electrocardiographic and echocardiography analyses. The number of patients was the one recommended by the Hospital Ethical Committee. […] The patients were enrolled in both studies (functional and phenotypic characterization, IND n = 6 and CCC n = 7) when the available number of purified PBMC (limited by the cellular number isolated from each subject) was enough for both analyses. Another four CCC patients had to be enrolled to perform the phenotypic analysis in order to reach statistical significance.
The frequency of Granzyme B (GzB) producing cells was evaluated by ELISPOT assays using cryopreserved PBMC from Chagas disease patients and healthy donors as control. This protocol was carried out as described in [20]. Briefly, 96-well PVDF membrane-bottom plates (Millipore) were pre-wetted with 35% ethanol and washed five times with PBS. Subsequently, plates were coated with 100 μL of anti-GzB (5 μg/mL) monoclonal antibody (Mabtech) and incubated overnight at 4°C. Plates were washed with PBS and incubated with 200 μL/well of blocking solution (RPMI-1640-10% FCS) at room temperature for 30 minutes. Afterwards, 5 × 10^4 PBMC/well were added and incubated with 1 μM of each peptide for 30 h at 37°C with 5% CO2, in triplicates. As a positive control, the PBMC were stimulated with 50 ng/ml phorbol 12-myristate 13-acetate (PMA, Sigma) and 500 ng/ml ionomycin (Sigma), or 10 μg/mL of phytohaemaglutinin (PHA, Sigma). Supernatants were harvested and aliquoted at -80°C for subsequent cytokine secretion profile determination. After five washes, 100 μL/well of a 1 μg/mL solution of biotinylated GzB-specific antibody (Mabtech) was added in 0.5% iFCS in PBS, and the plates were incubated for 2 h at room temperature. Wells were extensively washed with PBS and incubated with 100 μL/well streptavidin-alkaline phosphatase (Sigma) at dilution of 1:6000 for 1 h at room temperature. After washing (5x) with PBS, 50 μL/well of substrate solution (NBT-BCIP substrate, Sigma) were added. The wells were incubated for 20–30 min at room temperature in the dark. The reaction was stopped by rinsing the plates with cold tap water. The spots were visualized in an AXIO PLAN 2 Imagine microscope and quantified using KS ELISPOT software. The results are expressed as the number of peptide-induced spots forming cell (SFC) x10^6 PBMC after subtracting the spot number of peptide un-stimulated PBMCs (basal response). The results were considered positive when a minimum of 20 SFCx10^6 PBMCs and of at least over twofold basal spot numbers were detected.
The cytotoxic activity of the CD8^+ T cells specific for these four TcCA-2-derived epitopes was evaluated by secretion of GzB through ELISPOT assays. Thus, PBMC from 15 HLA-A*02:01 chagasic patients (8 IND and 7 CCC) and 9 healthy donors were incubated with the peptides under study. A positive GzB response was detected in 3 patients (2 IND and 1 CCC) out of 10 in response to incubation with the TcCA-2_657-666 peptide, 5 patients (3 IND and 2 CCC) out of 14 in response to the TcCA-2_442-451 peptide, 3 patients (3 CCC) out of 14 in response to the TcCA-2_607-615 peptide and 2 patients (2 IND) out of 11 in response to the TcCA-2_273-281 peptide (Table 3). Cytotoxic activities were not detected in any healthy donor. […]

Setting [2] is: PBMC of patient CCC I 456, 1 μM peptide.
Where [3] appears, read: PBMC of patient CCC I 770, 1 μM peptide.
Where [4] appears, read: PBMC of patient CCC I 861, 1 μM peptide.
Where [5] appears, read: PBMC of patient CCC I 884, 1 μM peptide.
[6] abbreviates: PBMC of patient CCC III 509, 1 μM peptide.
[7] abbreviates: PBMC of patient IND 365, 1 μM peptide.
Where [8] appears, read: PBMC of patient IND 388, 1 μM peptide.
Where [9] appears, read: PBMC of patient IND 510, 1 μM peptide.
The mark [10] stands for this setting: PBMC of patient IND 535, 1 μM peptide.
The mark [11] stands for this setting: PBMC of patient IND 571, 1 μM peptide.
The mark [12] stands for this setting: PBMC of patient IND 917, 1 μM peptide.
The mark [13] stands for this setting: PBMC of subject HD 001, 1 μM peptide.
Setting [14] is: PBMC of subject HD 004, 1 μM peptide.
[15] abbreviates: PBMC of subject HD 005, 1 μM peptide.
Where [16] appears, read: PBMC of subject HD 006, 1 μM peptide.
Where [17] appears, read: PBMC of subject HD 008, 1 μM peptide.
The mark [18] stands for this setting: PBMC of subject HD 011, 1 μM peptide.
Setting [19] is: PBMC of subject HD 340, 1 μM peptide.
Setting [20] is: PBMC of subject HD 664, 1 μM peptide.
Where [21] appears, read: PBMC of patient CCC II 142, 1 μM peptide.
The mark [22] stands for this setting: PBMC of patient CCC III 797, 1 μM peptide.
Setting [23] is: PBMC of patient IND 265, 1 μM peptide.
The mark [24] stands for this setting: PBMC of patient IND 283, 1 μM peptide.

In the case of AAAGDKLSL [TcCA-2_273-281], the “% maximal stabilization” value on HLA-A*02:01 was determined as 12.41%. Further, the GzB in experiment [1] (setting [2]) is recorded as 13 SFC/10^6; in experiment [1] (setting [3]) it was -7 SFC/10^6; in experiment [1] (setting [4]), 8 SFC/10^6; in experiment [1] (setting [5]), 7 SFC/10^6; in experiment [1] (setting [6]), 0 SFC/10^6; in experiment [1] (setting [7]), 7 SFC/10^6. In addition, the GzB in experiment [1] (setting [8]) is reported as 33 SFC/10^6; in experiment [1] (setting [9]) it was -20 SFC/10^6; in experiment [1] (setting [10]), -27 SFC/10^6; in experiment [1] (setting [11]), 67 SFC/10^6; in experiment [1] (setting [12]), 13 SFC/10^6; in experiment [1] (setting [13]) it was 1 SFC/10^6. The GzB in experiment [1] (setting [14]) is on record as 0 SFC/10^6; in experiment [1] (setting [15]) it was -47 SFC/10^6; in experiment [1] (setting [16]) it was -7 SFC/10^6; in experiment [1] (setting [17]), -47 SFC/10^6; in experiment [1] (setting [18]), -20 SFC/10^6; in experiment [1] (setting [19]) it was 0 SFC/10^6. Further, in experiment [1] (setting [20]), the GzB is 0 SFC/10^6.

In the case of ALQVTNHRYL [TcCA-2_657-666], the “% maximal stabilization” value at HLA-A*02:01 is reported as 21.49%. The GzB was -7 SFC/10^6 in experiment [1] (setting [3]); 50 SFC/10^6 in experiment [1] (setting [4]); 0 SFC/10^6 in experiment [1] (setting [5]); 0 SFC/10^6 in experiment [1] (setting [6]); 0 SFC/10^6 in experiment [1] (setting [7]); 7 SFC/10^6 in experiment [1] (setting [8]). Moreover, the GzB in experiment [1] (setting [9]) is given as -7 SFC/10^6; in experiment [1] (setting [10]), 67 SFC/10^6; in experiment [1] (setting [11]) it was 83 SFC/10^6; in experiment [1] (setting [12]), -10 SFC/10^6; in experiment [1] (setting [13]) it was 0 SFC/10^6; in experiment [1] (setting [14]), -7 SFC/10^6. Further, the GzB was -40 SFC/10^6 in experiment [1] (setting [15]); 0 SFC/10^6 in experiment [1] (setting [16]); -47 SFC/10^6 in experiment [1] (setting [17]); -7 SFC/10^6 in experiment [1] (setting [18]); 0 SFC/10^6 in experiment [1] (PBMC of subject HD 017, 1 μM peptide); 1 SFC/10^6 in experiment [1] (setting [19]). Also, the GzB in experiment [1] (setting [20]) came out at 0 SFC/10^6.

Turning to ALRNLRVFL [TcCA-2_607-615], the “% maximal stabilization” value at HLA-A*02:01 was found to be 29.54%. The GzB was 13 SFC/10^6 in experiment [1] (setting [2]); 0 SFC/10^6 in experiment [1] (setting [3]); -8 SFC/10^6 in experiment [1] (setting [4]); 0 SFC/10^6 in experiment [1] (setting [5]); 53 SFC/10^6 in experiment [1] (setting [21]); 25 SFC/10^6 in experiment [1] (setting [6]). The GzB in experiment [1] (setting [22]) is given as 27 SFC/10^6; in experiment [1] (setting [23]), -100 SFC/10^6; in experiment [1] (setting [24]), -20 SFC/10^6; in experiment [1] (setting [7]), 7 SFC/10^6; in experiment [1] (setting [8]), 13 SFC/10^6; in experiment [1] (setting [9]), 13 SFC/10^6. Moreover, the GzB in experiment [1] (setting [10]) is reported as -7 SFC/10^6; in experiment [1] (setting [12]), -20 SFC/10^6; in experiment [1] (setting [13]), 0 SFC/10^6; in experiment [1] (setting [14]), -7 SFC/10^6; in experiment [1] (setting [15]), -47 SFC/10^6; in experiment [1] (setting [16]) it was 7 SFC/10^6. Moreover, the GzB in experiment [1] (setting [17]) is -70 SFC/10^6; in experiment [1] (setting [18]), -7 SFC/10^6; in experiment [1] (setting [19]), 0 SFC/10^6; in experiment [1] (setting [20]), 0 SFC/10^6.

For the sequence TVFDASRSTV [TcCA-2_442-451], the “% maximal stabilization” value on HLA-A*02:01 turned out to be 24.44%. For the same sequence, the GzB in experiment [1] (setting [2]) is on record as -7 SFC/10^6; in experiment [1] (setting [3]), 13 SFC/10^6; in experiment [1] (setting [4]), 0 SFC/10^6; in experiment [1] (setting [5]), 7 SFC/10^6; in experiment [1] (setting [21]), 80 SFC/10^6; in experiment [1] (setting [6]), 50 SFC/10^6. For the same sequence, the GzB was 7 SFC/10^6 in experiment [1] (setting [22]); -13 SFC/10^6 in experiment [1] (setting [23]); 47 SFC/10^6 in experiment [1] (setting [24]); 27 SFC/10^6 in experiment [1] (setting [7]); 0 SFC/10^6 in experiment [1] (setting [8]); 0 SFC/10^6 in experiment [1] (setting [9]). Moreover, the GzB in experiment [1] (setting [10]) is on record as -13 SFC/10^6; in experiment [1] (setting [12]) it was 40 SFC/10^6; in experiment [1] (setting [13]), 0 SFC/10^6; in experiment [1] (setting [14]), 0 SFC/10^6; in experiment [1] (setting [15]), -40 SFC/10^6; in experiment [1] (setting [16]) it was -7 SFC/10^6. In addition, the GzB in experiment [1] (setting [17]) is -73 SFC/10^6; in experiment [1] (setting [18]), -20 SFC/10^6; in experiment [1] (setting [19]) it was 1 SFC/10^6; in experiment [1] (setting [20]), 1 SFC/10^6.
